In ChEMBL document CHEMBL1201862, “PubChem BioAssay data set” (2004):
The source made the active and inactive calls.

Experiments:
[1] = biological target: T1, High affinity choline transporter 1 (Homo sapiens, UniProt Q9GZV3); assay: CHT inhibitors, dose response, cell-based, 5-point CRC, membrane potential dye (AID 504840); assay type: functional
T1 sequence (Q9GZV3 whole entry): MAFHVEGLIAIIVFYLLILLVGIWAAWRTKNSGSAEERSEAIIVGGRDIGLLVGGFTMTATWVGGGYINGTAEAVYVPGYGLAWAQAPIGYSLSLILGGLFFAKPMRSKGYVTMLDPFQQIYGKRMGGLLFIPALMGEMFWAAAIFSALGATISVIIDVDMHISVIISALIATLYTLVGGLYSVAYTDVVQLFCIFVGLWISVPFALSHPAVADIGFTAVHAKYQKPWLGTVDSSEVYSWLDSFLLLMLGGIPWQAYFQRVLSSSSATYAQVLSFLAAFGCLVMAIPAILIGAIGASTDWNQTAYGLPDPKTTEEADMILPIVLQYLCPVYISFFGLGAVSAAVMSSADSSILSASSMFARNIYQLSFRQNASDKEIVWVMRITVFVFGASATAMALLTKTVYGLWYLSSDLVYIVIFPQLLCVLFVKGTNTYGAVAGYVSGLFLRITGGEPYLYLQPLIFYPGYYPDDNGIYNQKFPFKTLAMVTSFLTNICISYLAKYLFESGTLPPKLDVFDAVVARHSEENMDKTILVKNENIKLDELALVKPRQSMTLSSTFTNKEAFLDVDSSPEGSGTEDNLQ

[2] = biological target: Eukaryotic translation initiation factor 4E (Mus musculus, UniProt P63073); assay: eIF4E–eIF4G protein interaction inhibitors, dose response, biochemical, TR-FRET (AID 855); assay type: functional;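 note: potency for disrupting eIF4E binding to eIF4GI seen as loss of FRET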
[3] = A549 cell cytotoxicity, dose response, cytotoxicity control, plate reader, cherry-pick, antagonist series (AID 743412); assay type: functional, cell-based
[4] = LGR2 antagonists, dose response, cell-based, HEK293, CRE-luciferase reporter, cherry pick, set 2 (AID 743343); assay type: functional;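 note: transfected cells were stimulated with diluted bursicon conditioned medium after compound addition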
[5] = MC4R antagonists, dose response, counter-screen for LGR2 antagonist project, cell-based, plate reader, cherry pick (AID 743444); assay type: functional;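 note: transfected HEK 293 cells stimulated with alpha-MSH peptide; potency of inhibitors of the alpha-MSH evoked signal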
Vero [6] = assay: cells; assay type: functional, cell-based; conditions: Chlorocebus sabaeus
Cytochrome P450 2C19 = Cytochrome P450 2C19 (Homo sapiens, UniProt P33261); assay: Cytochrome panel assay with activity outcomes. Panel member name: p450-cyp2c19 Compounds with AC50 equal or less than 10 uM are considered active; assay type: functional; conditions: read-out: AC50
Cytochrome P450 3A4 [7] = biological target: T2, Cytochrome P450 3A4 (Homo sapiens, UniProt P08684);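 note: CYP3A4 tested as one member of a cytochrome P450 panel screen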
[8] = HEp-2 cell cytotoxicity, dose response, cytotoxicity control for RSV inhibitor project, HTS (AID 2410); assay type: functional; conditions: human respiratory syncytial virus
[9] = biological target: T3, Carboxy-terminal domain RNA polymerase II polypeptide A small phosphatase 1 (Homo sapiens, UniProt Q9GZU7); assay: inhibitors of CTDSP1, concentration-response testing, biochemical assay, absorbance-based, actives from ultra-high-throughput screening (AID 540297); assay type: functional
T3 sequence (Q9GZU7 whole entry): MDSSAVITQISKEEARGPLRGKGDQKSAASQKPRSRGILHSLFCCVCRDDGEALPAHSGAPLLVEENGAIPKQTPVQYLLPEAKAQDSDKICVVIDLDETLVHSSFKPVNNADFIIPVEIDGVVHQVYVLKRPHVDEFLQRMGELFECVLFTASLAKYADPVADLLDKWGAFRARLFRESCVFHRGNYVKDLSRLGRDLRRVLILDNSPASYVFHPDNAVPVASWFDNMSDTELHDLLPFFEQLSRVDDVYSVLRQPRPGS

[10] = inhibitors of HIV Env-driven cell fusion, dose response, cherry-pick (AID 652057); assay type: functional, cell-based
[11] = ZM109 Env clade C HIV-1 fusion inhibitors, dose response, HeLa effector, CEM target cells, luciferase, cherry-pick (AID 652058); assay type: functional, cell-based
[12] = inhibitors of clade B AD8 Env fusion, dose response, cell-based, cherry-pick (AID 652062); assay type: functional;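 note: luciferase signal from cell-cell fusion driven by HIV-1 clade B AD8 Env; potency is for inhibitors of fusion seen as a drop in luminescence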
Cytochrome P450 3A4 [13] = biological target: T2, Cytochrome P450 3A4; remark: listed apart in the source
Cytochrome P450 2C9 = Cytochrome P450 2C9 (Homo sapiens, UniProt P11712)
Cytochrome P450 1A2 = biological target: T4, Cytochrome P450 1A2 (Homo sapiens, UniProt P05177);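 note: PubChem cytochrome P450 panel assay, CYP1A2 panel member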
T4 sequence (P05177 whole entry): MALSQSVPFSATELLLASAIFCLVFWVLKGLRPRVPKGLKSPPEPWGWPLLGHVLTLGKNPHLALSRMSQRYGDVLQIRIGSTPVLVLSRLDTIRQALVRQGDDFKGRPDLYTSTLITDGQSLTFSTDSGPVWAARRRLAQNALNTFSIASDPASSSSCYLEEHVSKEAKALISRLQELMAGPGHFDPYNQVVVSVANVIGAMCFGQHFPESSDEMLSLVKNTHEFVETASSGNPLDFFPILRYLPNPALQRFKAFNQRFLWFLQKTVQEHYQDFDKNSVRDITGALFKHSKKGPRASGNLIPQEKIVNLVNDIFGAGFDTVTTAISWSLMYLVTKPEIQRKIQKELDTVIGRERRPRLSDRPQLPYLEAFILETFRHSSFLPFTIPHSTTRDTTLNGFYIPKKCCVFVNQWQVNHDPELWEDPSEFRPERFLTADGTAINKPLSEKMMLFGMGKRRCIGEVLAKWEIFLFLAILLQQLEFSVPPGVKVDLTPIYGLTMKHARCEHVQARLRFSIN

Vero [14] = assay: cells; assay type: functional; conditions: Chlorocebus sabaeus
Paired box protein Pax-8 = Paired box protein Pax-8 (Homo sapiens, UniProt Q06710); assay: inhibitors of PAX8-driven TPO luciferase reporter, dose response, RMG-I cells, cherry-pick (AID 687027); assay type: functional, cell-based;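 note: luciferase reporter driven by Pax8 target thyroperoxidase promoter measured by SteadyGlo luminescence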
[15] = cytotoxicity in OVCAR8 ovarian cancer cells, dose response, PAX8 project, cell-based, plate reader, dry powder samples (AID 743197); assay type: functional; conditions: OVCAR-8
[16] = biological target: T5, Voltage-gated N-type calcium channel alpha-1B subunit/Amyloid beta A4 precursor protein-binding family A member 1 (Homo sapiens, UniProt Q00975+Q02410); assay type: protein assay
[17] = biological target: T5, Voltage-gated N-type calcium channel alpha-1B subunit/Amyloid beta A4 precursor protein-binding family A member 1; assay type: protein assay; remark: listed apart in the source
Estrogen receptor beta = Estrogen receptor beta (Homo sapiens, UniProt Q92731);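 note: recombinant ER-beta bound to coactivator SRC1 peptide in presence of estradiol agonist; inhibitors block coactivator peptide binding and lower the FRET signal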
Chain of Estrogen receptor beta (Q92731 whole entry): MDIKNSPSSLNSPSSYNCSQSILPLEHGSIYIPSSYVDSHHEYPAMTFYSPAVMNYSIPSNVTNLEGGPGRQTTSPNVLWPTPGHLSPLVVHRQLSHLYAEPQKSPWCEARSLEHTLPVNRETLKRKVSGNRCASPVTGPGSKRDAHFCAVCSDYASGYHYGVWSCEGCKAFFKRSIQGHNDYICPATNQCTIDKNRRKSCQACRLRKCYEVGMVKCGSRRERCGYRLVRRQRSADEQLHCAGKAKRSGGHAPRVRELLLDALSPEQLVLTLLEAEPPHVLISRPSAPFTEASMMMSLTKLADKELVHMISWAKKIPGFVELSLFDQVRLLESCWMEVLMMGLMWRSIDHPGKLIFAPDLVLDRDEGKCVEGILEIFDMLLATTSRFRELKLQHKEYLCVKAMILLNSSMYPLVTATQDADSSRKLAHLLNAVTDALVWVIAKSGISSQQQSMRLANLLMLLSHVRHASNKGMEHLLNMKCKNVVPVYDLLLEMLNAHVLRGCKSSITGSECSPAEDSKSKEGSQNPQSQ

Chain of Eukaryotic translation initiation factor 4E (P63073 whole entry): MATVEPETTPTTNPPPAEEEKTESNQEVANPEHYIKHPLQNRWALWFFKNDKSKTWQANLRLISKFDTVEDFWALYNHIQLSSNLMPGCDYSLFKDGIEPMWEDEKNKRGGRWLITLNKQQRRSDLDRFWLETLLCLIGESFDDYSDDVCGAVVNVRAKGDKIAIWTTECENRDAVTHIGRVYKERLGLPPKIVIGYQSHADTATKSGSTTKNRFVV
T2 sequence (P08684 whole entry): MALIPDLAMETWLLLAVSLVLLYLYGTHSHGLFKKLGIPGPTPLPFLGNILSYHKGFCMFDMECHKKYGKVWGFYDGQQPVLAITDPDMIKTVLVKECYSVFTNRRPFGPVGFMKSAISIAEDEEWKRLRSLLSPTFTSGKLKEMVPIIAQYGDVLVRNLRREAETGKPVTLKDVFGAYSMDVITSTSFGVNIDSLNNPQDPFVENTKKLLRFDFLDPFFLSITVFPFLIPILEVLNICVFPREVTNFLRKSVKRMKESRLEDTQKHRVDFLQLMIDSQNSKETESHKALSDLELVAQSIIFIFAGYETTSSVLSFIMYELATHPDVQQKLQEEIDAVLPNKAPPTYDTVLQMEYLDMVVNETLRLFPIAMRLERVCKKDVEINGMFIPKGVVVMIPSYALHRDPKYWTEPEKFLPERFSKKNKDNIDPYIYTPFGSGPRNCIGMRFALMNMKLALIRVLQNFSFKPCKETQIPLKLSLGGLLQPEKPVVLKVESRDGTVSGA
T5 sequence (Q00975 whole entry): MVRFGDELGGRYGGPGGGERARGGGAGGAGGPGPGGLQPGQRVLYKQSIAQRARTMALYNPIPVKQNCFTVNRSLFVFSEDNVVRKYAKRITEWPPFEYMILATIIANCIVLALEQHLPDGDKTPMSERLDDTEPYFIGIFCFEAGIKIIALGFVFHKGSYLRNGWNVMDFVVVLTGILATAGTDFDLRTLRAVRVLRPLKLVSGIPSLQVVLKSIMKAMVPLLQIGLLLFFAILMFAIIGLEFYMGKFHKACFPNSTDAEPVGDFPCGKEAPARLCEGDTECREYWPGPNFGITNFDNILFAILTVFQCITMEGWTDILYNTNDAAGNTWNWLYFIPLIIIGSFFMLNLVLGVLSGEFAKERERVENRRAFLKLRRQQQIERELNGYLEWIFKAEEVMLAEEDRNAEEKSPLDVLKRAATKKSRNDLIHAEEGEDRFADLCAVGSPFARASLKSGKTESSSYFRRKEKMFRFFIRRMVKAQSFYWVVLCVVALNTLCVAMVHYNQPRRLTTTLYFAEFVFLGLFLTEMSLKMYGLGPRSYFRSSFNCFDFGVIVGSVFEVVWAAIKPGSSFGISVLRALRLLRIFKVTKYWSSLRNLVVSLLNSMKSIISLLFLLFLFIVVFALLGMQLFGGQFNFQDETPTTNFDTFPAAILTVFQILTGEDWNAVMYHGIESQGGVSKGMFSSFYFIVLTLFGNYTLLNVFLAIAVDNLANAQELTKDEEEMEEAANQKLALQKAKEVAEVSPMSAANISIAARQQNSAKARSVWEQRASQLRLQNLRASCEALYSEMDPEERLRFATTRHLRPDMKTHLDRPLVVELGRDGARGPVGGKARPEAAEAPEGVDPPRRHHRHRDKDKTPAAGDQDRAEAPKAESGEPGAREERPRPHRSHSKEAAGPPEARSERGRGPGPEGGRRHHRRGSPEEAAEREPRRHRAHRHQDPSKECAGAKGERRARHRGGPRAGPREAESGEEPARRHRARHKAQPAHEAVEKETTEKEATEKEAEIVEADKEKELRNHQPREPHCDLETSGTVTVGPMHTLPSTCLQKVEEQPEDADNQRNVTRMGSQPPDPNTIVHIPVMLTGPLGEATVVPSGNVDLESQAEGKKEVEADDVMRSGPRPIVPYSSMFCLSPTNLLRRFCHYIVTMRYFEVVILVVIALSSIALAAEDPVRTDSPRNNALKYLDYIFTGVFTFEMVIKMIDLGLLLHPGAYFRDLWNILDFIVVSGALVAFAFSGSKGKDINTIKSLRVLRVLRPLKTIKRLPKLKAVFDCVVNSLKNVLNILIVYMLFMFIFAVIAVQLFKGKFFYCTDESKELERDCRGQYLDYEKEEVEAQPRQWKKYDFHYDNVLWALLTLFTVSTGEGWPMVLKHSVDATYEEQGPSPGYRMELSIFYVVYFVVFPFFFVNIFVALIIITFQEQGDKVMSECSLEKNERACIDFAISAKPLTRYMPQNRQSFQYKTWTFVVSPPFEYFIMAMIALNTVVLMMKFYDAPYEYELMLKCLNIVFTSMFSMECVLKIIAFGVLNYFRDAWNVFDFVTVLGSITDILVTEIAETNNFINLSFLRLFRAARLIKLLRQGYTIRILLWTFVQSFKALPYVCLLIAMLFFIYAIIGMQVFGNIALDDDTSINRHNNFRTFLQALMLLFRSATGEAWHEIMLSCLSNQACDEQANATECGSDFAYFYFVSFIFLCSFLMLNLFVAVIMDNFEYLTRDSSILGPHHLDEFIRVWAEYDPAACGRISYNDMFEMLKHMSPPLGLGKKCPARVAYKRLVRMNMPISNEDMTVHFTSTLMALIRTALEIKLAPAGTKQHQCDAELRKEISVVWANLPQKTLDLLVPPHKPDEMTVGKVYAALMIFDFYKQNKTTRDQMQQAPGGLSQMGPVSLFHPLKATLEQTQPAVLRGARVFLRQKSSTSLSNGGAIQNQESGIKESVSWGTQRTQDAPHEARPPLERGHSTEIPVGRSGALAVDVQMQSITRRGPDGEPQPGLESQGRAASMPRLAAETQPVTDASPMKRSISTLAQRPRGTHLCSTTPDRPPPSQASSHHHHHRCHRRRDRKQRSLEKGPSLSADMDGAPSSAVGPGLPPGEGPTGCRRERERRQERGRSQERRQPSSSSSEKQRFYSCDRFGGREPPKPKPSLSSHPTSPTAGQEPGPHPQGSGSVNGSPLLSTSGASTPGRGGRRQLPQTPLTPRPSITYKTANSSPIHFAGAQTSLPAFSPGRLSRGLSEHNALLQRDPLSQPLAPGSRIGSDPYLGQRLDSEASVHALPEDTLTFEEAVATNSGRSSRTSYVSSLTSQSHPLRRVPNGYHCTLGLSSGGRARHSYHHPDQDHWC
T5 sequence (Q02410 whole entry): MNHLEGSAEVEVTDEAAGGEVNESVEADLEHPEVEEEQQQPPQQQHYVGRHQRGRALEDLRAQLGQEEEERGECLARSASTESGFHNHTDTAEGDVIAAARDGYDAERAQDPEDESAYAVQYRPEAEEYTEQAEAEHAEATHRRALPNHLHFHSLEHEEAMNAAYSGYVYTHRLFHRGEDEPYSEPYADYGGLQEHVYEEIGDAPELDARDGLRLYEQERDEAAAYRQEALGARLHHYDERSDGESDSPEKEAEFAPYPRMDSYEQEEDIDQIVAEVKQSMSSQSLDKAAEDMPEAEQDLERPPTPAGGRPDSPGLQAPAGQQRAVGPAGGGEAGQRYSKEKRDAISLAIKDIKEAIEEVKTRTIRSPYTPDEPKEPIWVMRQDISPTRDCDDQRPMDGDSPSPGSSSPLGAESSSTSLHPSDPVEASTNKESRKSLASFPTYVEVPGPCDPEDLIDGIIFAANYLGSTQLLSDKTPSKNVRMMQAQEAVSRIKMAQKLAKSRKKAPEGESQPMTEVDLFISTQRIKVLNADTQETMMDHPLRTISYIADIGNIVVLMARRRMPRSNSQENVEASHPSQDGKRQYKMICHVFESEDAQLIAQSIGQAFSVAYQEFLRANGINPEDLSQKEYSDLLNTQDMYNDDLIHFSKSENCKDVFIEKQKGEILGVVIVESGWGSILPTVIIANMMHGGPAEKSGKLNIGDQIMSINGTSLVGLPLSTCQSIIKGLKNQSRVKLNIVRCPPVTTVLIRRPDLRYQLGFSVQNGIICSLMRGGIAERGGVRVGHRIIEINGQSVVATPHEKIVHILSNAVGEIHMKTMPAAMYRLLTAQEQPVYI
Chain of Cytochrome P450 2C9 (P11712 whole entry): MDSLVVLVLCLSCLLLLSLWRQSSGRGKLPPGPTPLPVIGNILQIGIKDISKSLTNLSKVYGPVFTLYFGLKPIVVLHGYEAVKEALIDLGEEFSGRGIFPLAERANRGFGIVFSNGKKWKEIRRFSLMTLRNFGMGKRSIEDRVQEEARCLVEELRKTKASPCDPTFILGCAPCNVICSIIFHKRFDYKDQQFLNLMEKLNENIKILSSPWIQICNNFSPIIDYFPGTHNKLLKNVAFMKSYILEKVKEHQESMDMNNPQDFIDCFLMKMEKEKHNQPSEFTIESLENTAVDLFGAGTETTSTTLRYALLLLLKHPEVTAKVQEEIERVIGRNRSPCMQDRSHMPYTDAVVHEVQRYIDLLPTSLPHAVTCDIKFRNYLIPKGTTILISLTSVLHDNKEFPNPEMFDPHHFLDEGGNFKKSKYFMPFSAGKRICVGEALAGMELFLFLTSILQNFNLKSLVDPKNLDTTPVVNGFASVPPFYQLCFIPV

SMILES: O=C(C[n+]1cccc(Br)c1)c1cccs1
- IC50 [1]: 13.2 µM (active)

SMILES: CC1CCC(C(C)C)C(OC(=O)COC(=O)c2ccc(N)cc2)C1 (stereo unspecified)
- IC50 [2]: > 64 µM (inactive)

SMILES: CC(C)CCn1cnc2c(oc3nc4c(cc32)CCCC4)c1=O
- AC50 [3]: > 52 µM (inactive)
- AC50 [4]: 4.92 µM (active)
- AC50 [5]: 3.8 µM (active)

SMILES: CC(Oc1ccccc1F)C(=O)Nc1ccc2ccccc2c1 (stereo unspecified)
- IC50 (Vero [6]): > 6.25 µM (active)

SMILES: C[C@](O)(c1ccccc1)c1nccc2ccccc12
- AC50 (Cytochrome P450 2C19): 3.98 µM (inconclusive)
- AC50 (Cytochrome P450 3A4 [7]): inconclusive

SMILES: COc1cc2c(cc1NC(=O)c1ccc(C(C)(C)C)cc1)CCCC2
- CC50 [8]: 18.2 µM (active)
- IC50 (Vero [6]): 8.78 µM (active)

SMILES: Cc1cccn2c(=O)c3cc(C#N)/c(=N\C(=O)c4ccco4)n(Cc4ccco4)c3nc12
- IC50 [9]: > 80 µM (inactive)

SMILES: CO[C@@H]1CN(C)C(=O)c2cc(NS(=O)(=O)c3cn(C)cn3)ccc2OC[C@@H](C)N(Cc2ccc(C(F)(F)F)cc2)C[C@H]1C
- AC50 [10]: 2.32 µM (active)
- AC50 [11]: 1.91 µM (active)
- AC50 [12]: 4.85 µM (active)

SMILES: Cc1cc2ccccn2c1C(=O)c1ccc(Cl)cc1
- AC50 (Cytochrome P450 3A4 [7]): inconclusive

SMILES: N#Cc1ccc(C2=NC(C(F)(F)F)(C(F)(F)F)c3c(n(Cc4ccco4)c(=O)[nH]c3=O)N2)cc1
- AC50 (Cytochrome P450 3A4 [7]): inconclusive

SMILES: C=CCSc1nc2ccccc2n1Cc1nnc(-c2cccs2)o1
- IC50 [1]: 0.457 µM (active)

SMILES: COc1ccccc1NC(=O)c1ccc(S(=O)(=O)N(C)C)cc1
- IC50 [2]: > 64 µM (inactive)

SMILES: O=C(CCNS(=O)(=O)c1cccs1)N1CCCCCC1
- IC50 [2]: > 64 µM (inactive)
- AC50 (Cytochrome P450 3A4 [13]): 20 µM (inconclusive)
- AC50 (Cytochrome P450 2C9): 28.2 µM (inconclusive)

SMILES: CC(C)n1cnc2c(C(=O)N[C@H]3CN4CCC3CC4)cc(Cl)cc21
- AC50 (Cytochrome P450 1A2): 39.8 µM (inconclusive)
- AC50 (Cytochrome P450 3A4 [7]): inconclusive

SMILES: O=C(CSc1nnc(-c2ccco2)n1Cc1ccco1)NCc1cccs1
- IC50 [1]: 9.55 µM (active)

SMILES: Cc1oc(-c2ccc(Cl)cc2)nc1CN1CCC(C(=O)NCc2ccco2)CC1
- IC50 [2]: > 64 µM (inactive)

SMILES: O=C(O)c1cccnc1C(=O)O [QUINOLINIC ACID]
- AC50 (Cytochrome P450 3A4 [7]): inconclusive

SMILES: CN1CCN(c2ccc3sc(-n4ccc5ccccc54)nc3c2)CC1
- IC50 (Vero [6]): 22.7 µM (active)
- CC50 (Vero [14]): > 25 µM (active)

SMILES: Cc1ccc(S(=O)(=O)N(C)C[C@@H]2OCCCC[C@@H](C)Oc3ccc(NS(=O)(=O)c4ccc(Cl)cc4)cc3C(=O)N([C@H](C)CO)C[C@H]2C)cc1
- AC50 (Paired box protein Pax-8): 4.4 µM (active)
- AC50 [15]: > 70 µM (inactive)

SMILES: Cc1cc(C(=O)O)ccc1-c1ccc(/C=C2\SC(=O)N(CC(=O)Nc3ccc4c(c3)OCO4)C2=O)o1
- IC50 [16]: 17.5 µM (active)
- IC50 [17]: > 50 µM (inactive)

SMILES: COc1ccc(-c2cn3ccsc3n2)cc1
- IC50 (Estrogen receptor beta): > 50 µM (not active)

SMILES: Cc1ccc(-n2nc(C)c(/C=N/n3c(C)nc4ccccc4c3=O)c2O)cc1
- IC50 (Estrogen receptor beta): > 50 µM (not active)

SMILES: CC(=O)c1ccccc1NS(=O)(=O)c1cccc2nsnc12
- IC50 [9]: 4.66 µM (active)

SMILES: CC1CCCC(C)N1C(=O)Nc1cccc(Cl)c1 (stereo unspecified)
- IC50 (Estrogen receptor beta): > 50 µM (not active)
